For orientation: DC50 means the concentration giving 50% degradation. The IC50 is the concentration that gives 50% inhibition. Lower therefore signals inhibition by little substance. As usually defined, the Ki is a dissociation constant, usually derived from enzyme kinetics or from competition with a known ligand.

The values below come from ChEMBL document CHEMBL6109046, “Recent advances in developing targeted protein degraders” (Eur J Med Chem, 2025).

Test [1] deals with von Hippel-Lindau disease tumor suppressor/Bromodomain-containing protein 9 (Homo sapiens, UniProt Q9H8M2+P40337). As to the kind of experiment: PROTAC activity at VHL/BRD9 in human HeLa cells assessed as protein degradation by Western blot analysis. Format: cell-based.
von Hippel-Lindau disease tumor suppressor/Bromodomain-containing protein 9, sequence (Q9H8M2 whole entry): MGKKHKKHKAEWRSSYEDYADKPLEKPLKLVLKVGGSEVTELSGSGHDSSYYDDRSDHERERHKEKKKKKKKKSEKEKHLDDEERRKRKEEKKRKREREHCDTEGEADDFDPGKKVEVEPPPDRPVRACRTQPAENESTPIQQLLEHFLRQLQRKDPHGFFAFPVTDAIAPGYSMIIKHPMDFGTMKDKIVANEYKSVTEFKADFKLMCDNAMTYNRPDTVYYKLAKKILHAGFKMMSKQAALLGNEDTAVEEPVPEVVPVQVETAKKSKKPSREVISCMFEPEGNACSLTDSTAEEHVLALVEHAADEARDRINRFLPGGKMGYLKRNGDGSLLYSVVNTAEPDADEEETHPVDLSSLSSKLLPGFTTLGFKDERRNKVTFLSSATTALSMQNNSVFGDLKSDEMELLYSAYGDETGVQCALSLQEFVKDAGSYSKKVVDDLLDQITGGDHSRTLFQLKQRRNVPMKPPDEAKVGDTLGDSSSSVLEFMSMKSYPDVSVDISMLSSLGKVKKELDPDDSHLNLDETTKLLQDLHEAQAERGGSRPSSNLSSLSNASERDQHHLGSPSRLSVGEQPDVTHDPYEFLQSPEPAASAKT
von Hippel-Lindau disease tumor suppressor/Bromodomain-containing protein 9, sequence (P40337 whole entry): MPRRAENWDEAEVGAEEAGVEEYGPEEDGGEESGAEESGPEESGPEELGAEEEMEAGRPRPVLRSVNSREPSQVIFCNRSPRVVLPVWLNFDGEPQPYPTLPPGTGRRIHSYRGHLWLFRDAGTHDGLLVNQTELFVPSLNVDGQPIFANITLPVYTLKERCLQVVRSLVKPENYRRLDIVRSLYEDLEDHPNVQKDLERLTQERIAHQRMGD
Test [2] concerns the target Protein cereblon/Cyclin-dependent kinase 9 (Homo sapiens, UniProt P50750+Q96SW2). The test is described as follows: PROTAC activity at CRBN/CDK9 in human MV4-11 cells assessed as induction of CDK9 degradation measured for 3 days by Western blot analysis. Format: cell-based. In general terms: In western blotting, separated proteins are transferred to a membrane and probed.

A short description of test [3]: PROTAC activity at human VHL/BRD4 in human MV4-11 cells assessed as degradation of BRD4 incubated for 16 hrs by Western blot analysis. Particulars: MV4-11, 16 h. Format: cell-based.
The target in test [4] is Protein cereblon/Poly [ADP-ribose] polymerase 1 (Homo sapiens, UniProt P09874+Q96SW2). As to the kind of experiment: PROTAC activity at CRBN/PARP1 in human MDA-MB-231 cells assessed as degradation of PARP1 measured after 24 hrs by Western blot analysis. Format: cell-based.
Protein cereblon/Poly [ADP-ribose] polymerase 1, sequence (P09874 whole entry): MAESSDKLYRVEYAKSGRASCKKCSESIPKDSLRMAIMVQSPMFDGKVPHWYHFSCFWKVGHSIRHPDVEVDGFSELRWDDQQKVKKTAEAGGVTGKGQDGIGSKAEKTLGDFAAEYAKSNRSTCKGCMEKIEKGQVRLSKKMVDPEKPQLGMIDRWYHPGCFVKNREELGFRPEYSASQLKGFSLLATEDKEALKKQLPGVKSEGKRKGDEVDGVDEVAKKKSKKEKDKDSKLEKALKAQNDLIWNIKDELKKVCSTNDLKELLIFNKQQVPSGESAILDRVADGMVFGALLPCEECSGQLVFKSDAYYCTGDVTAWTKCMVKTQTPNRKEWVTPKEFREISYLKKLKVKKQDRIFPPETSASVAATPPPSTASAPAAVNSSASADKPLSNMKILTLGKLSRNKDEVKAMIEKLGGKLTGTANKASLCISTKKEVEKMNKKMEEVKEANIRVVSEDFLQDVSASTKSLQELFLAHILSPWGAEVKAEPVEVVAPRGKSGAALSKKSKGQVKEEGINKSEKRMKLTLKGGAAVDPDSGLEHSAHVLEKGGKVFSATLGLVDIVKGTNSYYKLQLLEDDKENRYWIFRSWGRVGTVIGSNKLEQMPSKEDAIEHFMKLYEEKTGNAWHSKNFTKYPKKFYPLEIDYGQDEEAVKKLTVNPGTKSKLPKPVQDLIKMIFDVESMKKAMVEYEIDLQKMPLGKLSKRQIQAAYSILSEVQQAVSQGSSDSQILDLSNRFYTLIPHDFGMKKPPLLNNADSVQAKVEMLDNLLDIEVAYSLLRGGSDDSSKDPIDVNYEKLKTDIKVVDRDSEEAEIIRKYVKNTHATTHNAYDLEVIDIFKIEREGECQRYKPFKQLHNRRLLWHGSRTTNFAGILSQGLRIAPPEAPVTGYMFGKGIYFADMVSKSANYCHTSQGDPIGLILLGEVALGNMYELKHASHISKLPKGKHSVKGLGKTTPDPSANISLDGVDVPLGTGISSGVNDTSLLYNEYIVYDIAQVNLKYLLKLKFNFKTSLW
Protein cereblon/Poly [ADP-ribose] polymerase 1, sequence (Q96SW2 whole entry): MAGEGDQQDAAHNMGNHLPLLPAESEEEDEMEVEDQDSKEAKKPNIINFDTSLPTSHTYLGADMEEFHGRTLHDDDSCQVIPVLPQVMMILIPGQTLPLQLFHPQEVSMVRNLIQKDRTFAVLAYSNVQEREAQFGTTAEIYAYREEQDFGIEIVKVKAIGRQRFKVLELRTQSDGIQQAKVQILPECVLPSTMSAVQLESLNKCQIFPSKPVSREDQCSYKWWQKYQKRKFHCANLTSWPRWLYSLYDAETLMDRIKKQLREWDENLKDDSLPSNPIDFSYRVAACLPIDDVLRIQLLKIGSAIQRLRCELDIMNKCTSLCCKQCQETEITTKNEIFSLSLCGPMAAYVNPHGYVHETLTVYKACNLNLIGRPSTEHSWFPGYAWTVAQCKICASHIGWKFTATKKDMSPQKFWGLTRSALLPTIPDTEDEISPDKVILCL
Test [5] in a line: PROTAC activity at VHL/BRD4 in human HeLa cells assessed as degradation of BRD4 incubated for 16 hrs by Western blot analysis. Format: cell-based.
Test [6] deals with von Hippel-Lindau disease tumor suppressor/Tyrosine-protein kinase BTK. The test is described as follows: PROTAC activity at VHL/BTK in human THP-1 cells assessed as induction of BTK degradation incubated for 24 hrs by immunoblotting analysis.
Test [7] deals with T1, Protein cereblon/Androgen receptor (Homo sapiens, UniProt P10275+Q96SW2). As to the kind of experiment: PROTAC activity at AR/CRBN in human LNCaP cells assessed as protein degradation incubated for 24 hrs by Western blot analysis. The class given is cell-based.
T1 sequence (P10275 whole entry): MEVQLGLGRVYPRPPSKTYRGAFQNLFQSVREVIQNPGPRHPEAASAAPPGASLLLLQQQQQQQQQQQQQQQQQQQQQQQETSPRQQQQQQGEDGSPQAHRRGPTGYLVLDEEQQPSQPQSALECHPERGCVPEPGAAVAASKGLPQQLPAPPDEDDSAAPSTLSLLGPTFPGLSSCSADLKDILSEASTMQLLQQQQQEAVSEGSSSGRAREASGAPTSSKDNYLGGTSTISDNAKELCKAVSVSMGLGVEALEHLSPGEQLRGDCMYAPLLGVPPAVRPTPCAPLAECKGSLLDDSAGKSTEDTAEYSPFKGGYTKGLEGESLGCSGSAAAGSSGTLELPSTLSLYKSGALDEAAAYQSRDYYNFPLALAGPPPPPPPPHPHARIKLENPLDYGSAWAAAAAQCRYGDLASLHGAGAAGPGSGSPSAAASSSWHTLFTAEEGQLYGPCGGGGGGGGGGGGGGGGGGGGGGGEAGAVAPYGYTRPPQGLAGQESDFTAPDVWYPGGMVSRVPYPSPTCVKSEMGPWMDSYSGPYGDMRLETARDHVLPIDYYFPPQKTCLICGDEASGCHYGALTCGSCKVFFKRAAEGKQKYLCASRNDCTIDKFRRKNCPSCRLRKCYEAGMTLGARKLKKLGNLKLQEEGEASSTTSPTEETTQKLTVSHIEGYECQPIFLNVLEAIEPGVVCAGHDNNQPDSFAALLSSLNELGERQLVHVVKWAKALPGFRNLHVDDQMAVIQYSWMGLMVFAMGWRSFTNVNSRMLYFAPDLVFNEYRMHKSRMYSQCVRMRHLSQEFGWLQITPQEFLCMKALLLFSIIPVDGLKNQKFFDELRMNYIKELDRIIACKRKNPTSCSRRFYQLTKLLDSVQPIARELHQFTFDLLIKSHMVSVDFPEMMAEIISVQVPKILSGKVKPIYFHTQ
T1 sequence (Q96SW2 whole entry): as the sequence (Q96SW2 whole entry) above
Test [8] has as its target von Hippel-Lindau disease tumor suppressor/Bromodomain-containing protein 4 (Homo sapiens, UniProt O60885+P40337). As to the kind of experiment: PROTAC activity at human VHL/BRD4 in human HeLa cells assessed as degradation of BRD4 incubated for 24 hrs by Western blot analysis. The class given is cell-based.
Test [9] can be described thus: PROTAC activity at SMARCA2/VHL in human MV4-11 cells assessed as protein degradation incubated for 18 hrs by Western blot analysis. Format: cell-based. Particulars: MV4-11, 18 h.
The nature of test [10]: Downregulation of induced PCSK9 expression in HEK293 cells by Western blot analysis. Format: functional, cell-based. The note with it: Homo sapiens.
For test [11], the target named is Proprotein convertase subtilisin/kexin type 9 (Homo sapiens, UniProt Q8NBP7). The test is described as follows: Binding affinity to PCSK9 (unknown origin) assessed as inhibition constant.
Proprotein convertase subtilisin/kexin type 9, sequence (Q8NBP7 31-152 limits assumed): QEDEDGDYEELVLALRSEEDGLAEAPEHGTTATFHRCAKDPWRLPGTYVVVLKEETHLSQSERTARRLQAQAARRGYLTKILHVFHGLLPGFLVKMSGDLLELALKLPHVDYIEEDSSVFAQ
Proprotein convertase subtilisin/kexin type 9, sequence (Q8NBP7 153-692 limits assumed): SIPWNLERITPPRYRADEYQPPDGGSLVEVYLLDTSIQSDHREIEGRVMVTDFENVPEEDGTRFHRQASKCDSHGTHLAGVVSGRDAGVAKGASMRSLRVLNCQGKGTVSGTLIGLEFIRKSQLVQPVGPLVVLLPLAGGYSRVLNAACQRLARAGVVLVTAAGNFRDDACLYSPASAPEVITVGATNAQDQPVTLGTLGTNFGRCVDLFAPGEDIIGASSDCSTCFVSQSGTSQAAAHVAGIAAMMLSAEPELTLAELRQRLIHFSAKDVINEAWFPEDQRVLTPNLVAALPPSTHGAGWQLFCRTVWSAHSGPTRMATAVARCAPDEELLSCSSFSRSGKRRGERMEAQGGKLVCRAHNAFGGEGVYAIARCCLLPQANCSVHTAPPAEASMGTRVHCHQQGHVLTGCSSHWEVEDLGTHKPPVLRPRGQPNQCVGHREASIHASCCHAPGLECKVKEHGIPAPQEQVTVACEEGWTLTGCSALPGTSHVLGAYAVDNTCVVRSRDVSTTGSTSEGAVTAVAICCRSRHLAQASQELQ
For test [12], the target named is T1, Protein cereblon/Androgen receptor. The test is described as follows: PROTAC activity at CRBN/AR in human VCaP cells assessed as induction of AR degradation incubated for 24 hrs by Western blot analysis. Format: cell-based.

Protein cereblon/Cyclin-dependent kinase 9, sequence (P50750 whole entry): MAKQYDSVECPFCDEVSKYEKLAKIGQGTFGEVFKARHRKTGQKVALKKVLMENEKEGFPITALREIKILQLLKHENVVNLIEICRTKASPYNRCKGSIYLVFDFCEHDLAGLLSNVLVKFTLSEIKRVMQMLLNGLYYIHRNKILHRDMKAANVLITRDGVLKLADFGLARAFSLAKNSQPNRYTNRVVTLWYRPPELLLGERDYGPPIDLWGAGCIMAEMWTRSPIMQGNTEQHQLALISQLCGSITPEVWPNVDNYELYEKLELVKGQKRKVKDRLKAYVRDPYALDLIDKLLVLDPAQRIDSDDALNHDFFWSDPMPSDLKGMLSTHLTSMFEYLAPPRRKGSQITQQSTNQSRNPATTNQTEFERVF
Protein cereblon/Cyclin-dependent kinase 9, sequence (Q96SW2 whole entry): as the sequence (Q96SW2 whole entry) above
von Hippel-Lindau disease tumor suppressor/Bromodomain-containing protein 4, sequence (P40337 whole entry, looked up, other chains not shown): as the sequence (P40337 whole entry) above

Take `COc1cc(-c2cn(C)c(=O)c3cnccc23)c(OC)cc1CN1CCC(OCCCCCC(=O)N2CCN(c3ccc4c(NCCN)nc(C5(c6ccc(Cl)cc6)CCCCC5)nc4c3)CC2)CC1`: the DC50 in [1] was 90 nM.

`Cc1sc2c(c1C)C(c1ccc(Cl)cc1)=N[C@@H](CC(=O)NCCCCCCCCCCNC(=O)[C@@]13CCC(C)(C)C[C@@H]1[C@@H]1C(=O)C=C4[C@]5(C)C=C(C#N)C(=O)C(C)(C)[C@H]5CC[C@]4(C)[C@@]1(C)CC3)c1nnc(C)n1-2`: in [2], the DC50 is under 200 nM.

Take `Cc1sc2c(c1C)C(c1ccc(Cl)cc1)=N[C@@H](CC(=O)NCCCOCCOCCOCCCNC(=O)COc1c(Br)cc(/C=C3\C(=O)Nc4ccc(I)cc43)cc1Br)c1nnc(C)n1-2` (stereo in doubt): the DC50 in test [3] was 900 nM.

On to `COc1ccc(C2=N[C@H](c3ccc(Cl)cc3)[C@H](c3ccc(Cl)cc3)N2C(=O)N2CCN(CC(=O)NCCOCCOCCOCCOCCn3cc(-c4ccc(-n5cc6cccc(C(N)=O)c6n5)cc4)nn3)C(=O)C2)c(OC(C)C)c1`, for which the DC50 in test [4] was under 10000 nM.

As for `Cc1sc2c(c1C)C(c1ccc(Cl)cc1)=N[C@H](CC(=O)NCCCn1cc(CNC(=O)c3ccc(S(=O)(=O)N(CC#N)C(=O)CC45CC6CC(CC(C6)C4)C5)cc3)nn1)c1nnc(C)n1-2`, the DC50 in [3] turned out to be 3000 nM.

As to `COC(=O)C[C@H]1[C@]2(C)C3=C(C)[C@H](c4ccoc4-c4ccc(C(=O)NCCCNC(=O)C[C@@H]5N=C(c6ccc(Cl)cc6)c6c(sc(C)c6C)-n6c(C)nnc65)cc4)C[C@H]3O[C@@H]2[C@@H]2OC(=O)[C@]3(C)C=CC(=O)[C@@]1(C)[C@@H]23`, in test [5], the DC50 is 36000 nM.

On to `CN[C@@H](C)C(=O)N[C@H](C(=O)N1Cc2cc(OCCOCCOCCOCCOCCOC(=O)N3CCC[C@H](n4nc(-c5ccc(Oc6ccc(F)cc6F)cc5)c(C(N)=O)c4N)C3)ccc2C[C@@H]1C(=O)NC1CCCc2ccccc21)C(C)(C)C` (some centres undefined), for which, in test [6], the DC50 was determined as 182 nM.

Turning to `CC1(C)[C@H](NC(=O)c2ccc(OCC(=O)NCCCOCCOCCOCCCN(C(=O)CCl)C(C(=O)NCc3ccccc3)c3ccc(Cl)c(Cl)c3)cc2)C(C)(C)[C@H]1Oc1ccc(C#N)c(Cl)c1` (some centres undefined), the DC50 in test [7] was under 10000 nM.

As to `Cc1sc2c(c1C)C(c1ccc(Cl)cc1)=NC(CC(=O)NCCOCCOCCNC(=O)c1cccc(S(=O)(=O)Nc3ccc(C)c4c(C#N)c[nH]c34)c1)c1nnc(C)n1-2` (centres undefined), the DC50 in [8] is 10800 nM.

Regarding `Cc1ncsc1-c1ccc([C@H](C)NC(=O)[C@@H]2C[C@@H](O)CN2C(=O)[C@H](c2cc(N3CCC(CN4CCC(OC5CC(Oc6cc(N7[C@H]8CC[C@H]7CN(c7cc(-c9ccccc9O)nnc7N)C8)ccn6)C5)CC4)CC3)no2)C(C)C)cc1` (some centres undefined), in test [9], the DC50 was determined as 0.03 nM.

Take `COc1cc(/C=C/C(=O)N2CCC=CC2=O)cc(OC)c1OCCN1CCN(C(=O)CN2CCC(C(=O)Nc3ncc(SCc4ncc(C(C)(C)C)o4)s3)CC2)CC1`: the DC50 in test [2] was 9 nM.

Take `CC(C)(C)OC(=O)N=C(NCCC[C@H](NC(=O)OC(C)(C)C)C(=O)NCCOCCOc1cc2c(cc1Oc1ccc(-c3ccc(C(=O)O)cc3)c(F)c1)[C@@](C)(CC(=O)Nc1nccs1)NCC2)NC(=O)OC(C)(C)C`: half-maximal inhibition in test [10] (IC50) was put at 3400 nM. For the same compound, the Ki in test [11] amounted to 107 nM.

As to `Cc1ncsc1-c1ccc([C@H](CC[C@H](C)CCN2CCC(c3ccc4c(c3)n(C3CCCC3)c3nc(=O)c5c(Br)cccc5n43)CC2)NC(=O)[C@@H]2C[C@@H](O)CN2C(=O)[C@@H](NC(=O)C2(F)CC2)C(C)(C)C)cc1`, in test [9], the DC50 was 1 nM.

In the case of `Cc1ncsc1-c1ccc(CNC(=O)[C@@H]2C[C@@H](O)CN2C(=O)[C@@H](NC(=O)C2(F)CC2)C(C)(C)C)c(OCCOc2ccc(CN3CCN(c4cc(-c5ccccc5O)nnc4N)CC3)cc2)c1`, the DC50 in test [9] worked out at 6 nM.

For the compound `COc1cc(O[C@H]2C(C)(C)[C@H](NC(=O)c3ccc(N4CCC(CN5CCN(c6ccc(C(=O)N[C@H]7CCC(=O)NC7=O)c(F)c6)CC5)CC4)cc3)C2(C)C)ccc1C#N` [LUXDEGALUTAMIDE], the DC50 in test [12] is under 1 nM.

In the case of `CCOC(=O)C[C@@H](c1ccc(C)c(CN2C[C@@H](C)Oc3ccccc3S2(=O)=O)c1)c1cc(OCCNC(=O)CNC(=O)C[C@@H]2N=C(c3ccc(Cl)cc3)c3c(sc(C)c3C)-n3c(C)nnc32)c2c(c1)nnn2C`, the DC50 in test [2] was under 500 nM.

`Cc1sc2c(c1C)C(c1ccc(Cl)cc1)=N[C@@H](CC(=O)NCCCCOc1ccc(C3CC(c4ccc(Br)cc4)=NN3C(=O)CCl)cc1)c1nnc(C)n1-2` (some centres undefined): the DC50 in test [5] was under 10000 nM.

Regarding `Cc1sc2c(c1C)C(c1ccc(Cl)cc1)=N[C@@H](CC(=O)NCCCCOc1ccc(Oc3ccc(N(Cc4ccccc4)C(=O)CCl)cc3)cc1)c1nnc(C)n1-2`, in test [5], the DC50 is under 10000 nM.
